Numbers after ± are expanded uncertainties.
Tests used:
[1] = 100 kPa, Liquid; for speed of sound: Frequency=2 MHz, Linear variable-path acoustic interferometer; for mass density: Vibrating tube method
[2] = xn = mol fraction of the nth substance listed; settings: 100 kPa, Liquid, x1 = 1; for speed of sound: Frequency=2 MHz, Linear variable-path acoustic interferometer; for mass density: Vibrating tube method

Row | Compound | speed of sound ([1]; 303.15 K) | mass density ([1]; 303.15 K) | mass density ([1]; 308.15 K) | speed of sound ([1]; 313.15 K) | mass density ([1]; 313.15 K) | mass density ([1]; 318.15 K) | speed of sound ([2]; 303.15 K) | mass density ([2]; 303.15 K) | mass density ([2]; 308.15 K) | speed of sound ([2]; 313.15 K) | mass density ([2]; 313.15 K) | mass density ([2]; 318.15 K)
1 | CCO [ethanol] | 1127 ± 2.4 m/s | 781.08 ± 1.2 kg/m3 | 776.59 ± 1.2 kg/m3 | 1094 ± 2.4 m/s | 772.23 ± 1.2 kg/m3 | 767.61 ± 1.2 kg/m3 |  |  |  |  |  | 
2 | CCO [ethanol] + Cc1ccc(O)cc1 |  |  |  |  |  |  | 1127 ± 2.4 m/s | 781.08 ± 1.2 kg/m3 | 776.59 ± 1.2 kg/m3 | 1094 ± 2.4 m/s | 772.23 ± 1.2 kg/m3 | 767.61 ± 1.2 kg/m3
3 | Cc1cccc(O)c1 [3-methylphenol] | 1466.1 ± 2.5 m/s | 1025.71 ± 1.2 kg/m3 | 1021.7 ± 1.2 kg/m3 | 1436.1 ± 2.5 m/s | 1017.69 ± 1.2 kg/m3 | 1013.65 ± 1.2 kg/m3 |  |  |  |  |  | 
4 | Cc1ccccc1O [2-methylphenol] | 1488.1 ± 2.5 m/s | 1037.02 ± 1.2 kg/m3 | 1032.58 ± 1.2 kg/m3 | 1453 ± 2.5 m/s | 1028.19 ± 1.2 kg/m3 | 1023.82 ± 1.2 kg/m3 |  |  |  |  |  | 
5 | CCO [ethanol] + Cc1ccccc1O |  |  |  |  |  |  | 1127 ± 2.4 m/s | 781.08 ± 1.2 kg/m3 | 776.59 ± 1.2 kg/m3 | 1094 ± 2.4 m/s | 772.23 ± 1.2 kg/m3 | 767.61 ± 1.2 kg/m3
6 | Cc1ccc(O)cc1 [4-methylphenol] | 1473 ± 2.5 m/s | 1026.47 ± 1.2 kg/m3 | 1022.56 ± 1.2 kg/m3 | 1440.2 ± 2.5 m/s | 1018.64 ± 1.2 kg/m3 | 1014.68 ± 1.2 kg/m3 |  |  |  |  |  | 
7 | CCO [ethanol] + Cc1cccc(O)c1 |  |  |  |  |  |  | 1127 ± 2.4 m/s | 781.08 ± 1.2 kg/m3 | 776.59 ± 1.2 kg/m3 | 1094 ± 2.4 m/s | 772.23 ± 1.2 kg/m3 | 767.61 ± 1.2 kg/m3

Source: the NIST ThermoML archive (doi:10.1016/j.jct.2018.12.039)
